Here are results for 2 compounds from patent publication US9597361B2, “Treating a bacterial skin infection with a whole, leech saliva extract” (priority 2012, dated 2017).

Usually zone of inhibition stands for the size of the clear area around the sample on an inoculated plate.

The test system of test [1] is Pseudomonas aeruginosa ATCC27853. Nature of the test: Kirby-Bauer disc diffusion. Conditions: ATCC27853, read-out: Zone of inhibition, P. auroginosa. In general terms: Agar diffusion results depend on both activity and mobility in agar.
Test [2] has as its system Bacillus cereus ATCC25923. The test is described as follows: Kirby-Bauer disc diffusion. The settings on record: ATCC25923, read-out: Zone of inhibition, B. cereus.
The test system of test [3] is Escherichia coli ATCC35218. Nature of the test: Kirby-Bauer disc diffusion. Conditions: ATCC35218, read-out: Zone of inhibition, E. coli.
For test [4], the system named is Staphylococcus aureus ATCC25923. Nature of the test: Kirby-Bauer disc diffusion. The settings on record: ATCC25923, read-out: Zone of inhibition, S. aureus.
Another test deals with Salmonella typhi. Nature of the test: Kirby-Bauer disc diffusion. It is filed as cell-based. The settings on record: Salmonella enterica, read-out: Zone of inhibition, Sal. typhi.
Test [5] has as its system alloxan-induced diabetic rats. Nature of the test: Antihyperglycemic activity: fasting blood glucose in alloxan-induced diabetic rats.
Experimental: Male rats of Sprague Dawley strain (SD) (from Mikro Makmur Enterprise, Kuantan, Pahang Darul Makmur, Malaysia) were grouped randomly and kept at an animal post-graduate laboratory in Kulliyyah of Pharmacy, International Islamic University Malaysia (IIUM), maintained with an air conditioning system and exhaust fans. The rats were under a 12 h/12 h dark and light cycle at room temperature (25° C.). They were acclimatized to these conditions for one week prior to the experiment and housed in polypropylene cages lined with pine wood husk changed every two days. The rats were given free access to tap water and a commercial dry pellet diet, Gold Coin. The experimental procedures were conducted according to Principles and Guide to Ethical Use of Laboratory Animals approved by Ministry of Health Malaysia (Sinniah & Hussein, 2000). […]
After 24 hours of alloxanisation, the fasting blood glucose concentration (FBG) was measured every morning to check the diabetic state of the injected rats. […]
Fasting blood glucose (FBG) at two-hour intervals was recorded during the experiment period for all the experimental animals. The percentage decrease in fasting blood glucose concentration was calculated from the following equation (Madubunyi, Onoja, & Asuzu, 2010):

As for `O=C(O)c1cn(C2CC2)c2cc(N3CCNCC3)c(F)cc2c1=O` [Cipro, ciprofloxacin], the zone of inhibition at 5 µg/disc is 24 mm in test [1]; 28 mm in test [2]; 26 mm in test [3]; 24 mm in test [4]; 35 mm in the test on Salmonella typhi.

For the compound “insulin: insulin from bovine pancreas (≧27 units/mg), suspension in distilled water”, the “fasting blood glucose (FBG)” value in test [5] (after two hours of injection (LSE p<0.05; insulin p<0.001)) was “sharp significant decrease”; in test [5] (insulin 10 units/kg b.w s.c., after 8 hours of treatment) it was “returned to the diabetic state”.
